Measurements reported in a melting point compilation (Tetko et al.; mined from patent text by program, amines drawn as free bases though some values may be those of a salt).

melting point | Structure (SMILES)
255 °C | Cc1cc(C)c2nc(Nc3ccc(CN)cc3)n(Cc3nc(C)ccc3O)c2c1
234 to 236 °C | COc1cccc(Cc2n[nH]c3c2c(=O)n(-c2ccccc2)c2ncccc32)c1
86 to 90 °C | CCCCCCCCON1C(C)(C)CC(OC(=O)COc2ccc(-c3nc(-c4ccc(C)cc4C)nc(-c4ccc(C)cc4C)n3)c(O)c2)CC1(C)C
57 to 58 °C | CCC(=O)[C@@H](NC(=O)OCc1ccccc1)[C@@H](C)CC
178 to 179 °C | CC1(C)OC(c2ccc(S(N)(=O)=O)cc2)=C(c2ccc3c(c2)OCO3)C1=O
> 300 °C | COc1ccc2c(c1)N(CC(=O)O)C(=O)C(N)CC2 (centres undefined)
184 to 187 °C | CCOC(=O)COc1cccc2c1CCc1sc(S(=O)(=O)C(c3ccccc3)c3ccccc3)nc1-2
115 to 117 °C | O=C1C(Cl)=C(c2ccccc2)C(=O)N1Nc1ccc(F)cc1
281 to 282 °C | Cc1cc(-c2ccc3c(=O)c(C(=O)O)cn(-c4ccc(F)cc4)c3c2)on1
197 to 198 °C | COc1cc(OCC(=O)N(C)C)c(/C=C/C(=O)c2ccc(C(=O)O)cc2)cc1-c1cccs1
115 to 117 °C | COc1ccc(N2CCc3c(C)nc4ccccc4c32)c(C)c1
190 °C | CC(c1cccnc1)n1c(=O)[nH]c2cc(Cl)ccc21 (centres undefined)
101 to 104 °C | COc1ccc(CSc2cccc(Cl)c2CN(C)C)cc1
145 to 146 °C | O=c1c(Br)c(N2CCOCC2)oc2ccccc12
102 to 105 °C | NC(=O)c1cccc2c1CC(N(CCCc1c[nH]c3ccc(F)cc13)C1CCC1)CO2 (centres undefined)
104 to 106 °C | CON=C(C(=O)OC)c1ccccc1COc1ccc(C(C)=NOCc2ccccc2)cc1
168 °C | CC(=O)OC1CSC(Oc2cncc(-c3cc4ccccc4s3)c2)C(OC(C)=O)C1OC(C)=O (centres undefined)
115 to 117 °C | O=C1NCC(Cc2ccc(Br)cc2)O1 (centres undefined)
55 to 56 °C | COC(=O)c1ccc(OCC2CCCN(C)C2)cc1 (centres undefined)
83 to 87 °C | COc1cccc(-c2n[nH]c(-c3ccccc3COC(C)=O)n2)c1
125 to 126 °C | O=C1c2cc(N3CCN(Cc4ccccc4)CC3)ccc2OC12CC2
190 to 192 °C | CCNC1CC=C(c2c[nH]c3ccc(NC(=N)c4cccs4)cc23)CC1 (centres undefined)

melting point | Structure (SMILES)
91 to 93 °C | CS(=O)(=O)CCOC(=O)NCCSc1ccc2nccn2n1
229 to 230 °C | Cc1nnsc1C(=O)c1[nH]c2ccc(Cl)cc2c1CC(=O)O
207 to 210 °C | CC(C)(C)OC(=O)N1CCN(c2ccc(OC[C@@]3(C)Cn4cc([N+](=O)[O-])nc4O3)cc2Cl)CC1
166 to 167 °C | COc1ccccc1-c1cn(N=Cc2ccccc2)c(N)n1
118 to 120 °C | CC(CO)Nc1cc(Oc2nn(C)c(C(F)(F)F)c2Cl)ccc1[N+](=O)[O-] (centres undefined)
162 °C | CCOc1ncnc(OCC)c1NC(=S)NC(=O)c1ccccc1
63 to 64 °C | N#CC(C#N)=C1N(CCCN2CCCCC2)CCN1CCN1CCCC1
150 °C | COc1ccc(-c2cn(-c3cccc(OCCn4ccnc4)c3)c3ncnc(N)c23)cc1OCc1ccccc1
255 °C | Cc1cc(-c2ccc(C(F)(F)F)nc2)nc(-c2ccnc(-c3cccc(S(N)(=O)=O)c3)c2)n1
161 to 162 °C | Cc1nc(-c2cc3cccc(N(C)S(=O)(=O)c4cccs4)c3[nH]2)cs1
65 to 67 °C | COC(=O)/C=C/c1cccc(OCCCCCOC(C)=O)c1
111 to 113 °C | COC(=O)c1cc(C(C)=O)ccc1OCCCC(=O)O
150 °C | COc1ccc(-c2nc(CCCCCC(C#N)C(=O)O)oc2-c2ccc(OC)cc2)cc1 (centres undefined)
182 to 183 °C | O=C(Nc1c[nH]nc1C(=O)NCCOc1ccccc1)c1ccccn1
137 °C | CCOC(=O)Nc1c(C(=O)OC)sc2cc(OC)ccc12
144 to 145 °C | C#CCCCc1c2c(nn1CCC)c(N)nc1ccccc12
101 to 107 °C | CC(C)CC(NC(=O)C(Cc1c[nH]cn1)NC(=O)C(CC(=O)NCCc1ccccc1)Cc1cccc2ccccc12)C(O)CO (mixture of isomers)
279 to 281 °C | CCOC(=O)c1cnc2cc(C(C)(C)C)ccc2c1O
> 250 °C | CCc1nc2c(N)nc3ccc(-c4cccnc4)cc3c2n1CC(C)C
244 to 248 °C | O=c1c2c(c1=O)N(CCCP(=O)(O)O)CCCN2
82 to 88 °C | CCCCCCCCCCCCCCCCCCON1C(=O)c2ccccc2C1=O
114 to 116 °C | CCOCCOc1c(Cl)c(Sc2ccccc2N)c(OCCOCC)c2c1C(=N)NC2=N

melting point | Structure (SMILES)
86 to 88 °C | Cc1ccccc1-c1nc(-c2cccc(Cl)c2)n(C)n1
130 °C | CCNC(=O)C1(CCCc2ccccc2)c2ccccc2Oc2ccccc21
60 °C | O=C(c1ccc(F)cc1)C1CCN(CCn2c(=O)[nH]c3ncccc3c2=O)CC1
128 to 129 °C | C=CCc1cc(C=CNC(=O)OC)ccc1OCC(O)CNC(C)C (centres undefined)
104 °C | COc1ccc(CN2C(=O)C(C)(c3cc(N(C)C(=O)CN(C)C)ccc3Cl)c3cc(Cl)ccc32)c(OC)c1 (centres undefined)
211 to 213 °C | O=C(c1cccs1)c1cnn2c(-c3cccc(-n4cccc4)c3)ccnc12
65 °C | CC(C)(C)OC(=O)n1ccc2cnccc21
152 to 154 °C | CC(C)[C@H](NC(=O)CC[C@H](C)CNC(=O)Cc1ccccc1)[C@@H](O)c1c(-c2ccccc2)c1=O
120 to 123 °C | CN1CCN(Cc2ccc(NC(=O)N3CCCc4cc(Oc5ccnc(N)n5)ccc43)cc2C(F)(F)F)CC1
98 to 100 °C | COc1ccc2c(c1)CC(C(=O)O)O2 (racemic)
190 °C | CC1=C(C(=O)OC(C)(C)C)C(c2cccc(Cl)c2)C(C(=O)OC(C)(C)C)=C(C)N1
100 to 112 °C | O=CC(=O)c1ccc2c(c1)CCC2
174 to 175 °C | O=Cc1c[nH]c2ccc(Nc3ncnc4cc(-c5ccccc5)sc34)cc12
107 to 109 °C | COc1ncnc(-c2ccc(Cl)cc2Cl)c1C#N
179 to 180 °C | O=C(NCc1cccs1)Nc1cc(N2CC(c3ccccc3)CC2=O)ccn1 (centres undefined)
182 to 184 °C | COc1nc2cc(Cl)c(Cl)c(N)c2nc1OC
158 to 159 °C | O=S(=O)(NCCCCn1ccnc1)c1ccc(Br)cc1
34 °C | C=CC(COC(c1ccccc1)(c1ccccc1)c1ccccc1)OCCCCCCCCCCCCCCCC (centres undefined)
149 to 150 °C | CC1=C(C(=O)OC(C)(C)C)C(c2ccc(F)cc2)C(C(=O)OC(C)(C)C)=C(C)N1
128 °C | CCOC(=O)C1CC(O)CN1C(=O)c1ccc(OC)c(OC)c1 (centres undefined)

Structure (SMILES) | melting point
OC1(c2ccccc2)CCN(CCc2c[nH]c3ccccc23)CC1 | 133 to 137 °C
CC(C)N(C(=O)CN1C(=O)C(C)(CC(=O)Nc2ccccc2)C(=O)N(c2ccccc2)c2ccccc21)c1ccccc1 (centres undefined) | 228 to 229 °C
Cc1cccc2[nH]c(=O)n(CCCN3CC=C(c4cccc(C(F)(F)F)c4)CC3)c(=O)c12 | 158 to 160 °C
Cc1nc(C)c(C(=O)CBr)[nH]1 | 128 to 132 °C
C[C@](O)(CBr)C(=O)Nc1ccc(C#N)c(C(F)(F)F)c1 | 124 to 126 °C
